The numbers were not newly measured in patent US20260276655A1, “BIOMARKERS OF AMYOTROPHIC LATERAL SCLEROSIS AND USES THEREOF” (The Methodist Hospital, priority 2023, published 2026), which cites them from elsewhere.

The conditions of series [1]: normal physiological conditions.
Series [2] relates to ALS patients. Conditions: administered to ALS patients.

For `CCCCCC(O)/C=C/C=O` (centres unmarked) [4-HNE, 4-hydroxynonenal], the half-life entry in series [1] is “less than 2 minutes”. Regarding `CO/N=C(\C(=O)N[C@@H]1C(=O)N2C(C(=O)O)=C(CSc3nc(=O)c(=O)[nH]n3C)CS[C@H]12)c1csc(N)n1` [ceftriaxone, (6R,7R)-7-[[(2Z)-2-(2-amino-1,3-thiazol-4-yl)-2-methoxyiminoacetyl]amino]-3-[(2-methyl-5,6-dioxo-1H-1,2,4-triazin-3-yl)sulfanylmethyl]-8-ox o-5-thia-1-azabicyclo[4.2.0]oct-2-ene-2-carboxylic acid], in series [2], the “outcome of phase 3 clinical trial” value was “failed”.
